{"source": "patent US20040191287A1", "about": "“Fumigation process for stored food grains” (priority 2003, published 2004)", "key": {"[1]": {"system": "rat", "details": "1 hr; cited from earlier work"}, "[2]": {"system": "S. oryzae mixed-age cultures", "details": "72 hours at 26±2° C., 19.5 liter tin container with 12 kg wheat", "source_text": "Fumigation experiments with allyl acetate have been conducted in 19.5 litre capacity tin containers with mixed- age cultures of R. dominica, S. oryzae and T. castaneum as the test insects.\nMixed-age cultures of S. oryzae and R. dominica were obtained by allowing 300 adults of the individual species to breed in about 1 kg of wheat in a 2-liter glass jar. To obtain mixed- age culture of T. castaneum about 300 adults were released into 1 kg of whole-wheat flour plus 5% dried yeast in a 2-litre glass jar. The insect culture jars were kept under the rearing temperature conditions i.e., 25±1° C. for S. oryzae and T. castaneum and 30±1° C. for R. dominica.\nThe infested grain/flour after an incubation period of 7 weeks was used for the experiment. The cultures were weighed into 50 gm aliquots in 21 cm×14 cm size cloth bags. One set of three test insect bags comprising R. dominica, S. oryzae and T. castaneum were kept at the bottom of the container before filling the grain.\nAnother set of three-test insect bags was kept on the top layer of grains. The grain-filled containers were, then, fumigated with allyl acetate for 72 hours at 26±2° C. There were 6 doses ranging from 100 to 800 mg/litre with 3 replicates/dosage along with untreated controls. Required quantity of allyl acetate was measured in 10 and 25 ml measuring cylinder and quickly poured on to 5 gm of absorbent cotton wool kept over the grain layer in the tin container.\nImmediately after dosing, the container was closed with the lid tightly and sealed along the rim with adhesive tape. At the end of 72 hour, the lid was removed to aerate the commodity and the test insect bags were retrieved and the contents transferred to 300 ml capacity glass bottles.\nInsect survivors in the samples were recorded at weekly intervals for 8 weeks. Mortality in fumigated batches was calculated based on emergence/survivors in controls."}, "[3]": {"system": "rat", "details": "cited from earlier work"}, "[4]": {"system": "Cryptolestes sp.", "experiment": "LD 50 / LD 99 of allyl acetate to adults, probit analysis (Example 2)", "format": "in vivo", "details": "24-hour exposure at 26 ± 2° C.", "description": "(§1) Assays with allyl acetate against the adults of four species of stored grain insects namely S. oryzae, R. dominica, T. castaneum and Cryptolestes sp. were carried out to determine LD 50 and LD 99 doses. […] Cryptolestes sp. was reared on wheat feed. […] The insects were exposed to different doses of allyl acetate for 24 hour in 0.85-liter desiccators to yield 20-100% mortality. There were 6 replicates for each dose along with equal number of untreated control. […] Mortality of treated insects was assessed at the end of 14 days and it was corrected for natural control mortality. The data for the individual species were subjected to probit analysis following the method of Finney (1971) to arrive at LD 50 and LD 99 values."}, "[5]": {"system": "Sitophilus oryzae", "experiment": "LD 50 / LD 99 of allyl acetate to adults, probit analysis (Example 2)", "format": "in vivo", "details": "S. oryzae adults, 24-hour exposure at 26 ± 2° C.", "description": "as §1"}, "[6]": {"system": "Tribolium castaneum", "experiment": "LD 50 / LD 99 of allyl acetate to adults, probit analysis (Example 2)", "format": "in vivo", "details": "T. castaneum adults, 24-hour exposure at 26 ± 2° C.", "description": "as §1"}, "[7]": {"system": "Rhyzopertha dominica", "experiment": "LD 50 / LD 99 of allyl acetate to adults, probit analysis (Example 2)", "format": "in vivo", "details": "R. dominica adults, 24-hour exposure at 26 ± 2° C.", "description": "as §1"}, "[8]": {"system": "Sitophilus oryzae", "experiment": "whole plant or invertebrate", "description": "(§2) Cryptolestes sp. was reared on wheat feed. S. oryzae, Cryptolestes sp. and T. castaneum cultures were maintained at 25±1° C. and 70% RH whereas R. dominica cultures were maintained at 30±1° C. and 70% RH. From the established cultures, 2-week-old adults were taken and counted into 10 cm×2.3 cm size test tubes at 50 per replicate. The mouth of the tube was closed with a cloth piece held by small rubber ring. The insects were exposed to a range of doses (10 to 100 mg/litre) of esters for 24 hours in 0.85-liter desicators at the laboratory temperature of 26±2° C. Pure grade esters including allyl acetate, butyl acetate, ethyl acetoacetate, isopropyl acetate and propyl acetate were procured from Merck India Ltd. In each desiccator a 9 cm diameter Whatman No. 1 filter circle was placed; the filter circle acted as evaporating surface for the injected liquids (esters). Required quantity of the ester was drawn from the bottles using 10, 25 or 50 micro litre liquid syringe. There were 6 replicates for each dose with equal number of replicates for untreated control. The exposure period in all cases was 24 hours. […] Insect mortality was assessed after 14 days. Corrected mortality was arrived at based on Abbott's formula (1925)."}, "[9]": {"system": "Tribolium castaneum", "experiment": "whole plant or invertebrate", "description": "as §2"}, "[10]": {"system": "Rhyzopertha dominica", "experiment": "whole plant or invertebrate", "description": "as §2"}, "[11]": {"system": "T. castaneum mixed-age cultures", "experiment": "Fumigation in 125 litre plastic drums with 100 kg wheat, with/without perforated tubing (Example 6)", "format": "in vivo, Tribolium castaneum", "details": "for Insect Survivors / mortality at 200 µg/mL: T. castaneum, with perforated tubing, 200 mg/liter, 72 hours, 26 ± 2° C., 125 liter drum, 100 kg wheat; for mortality at 200 µg/mL: 72 h, read-out: % mortality based on survivors in untreated controls"}, "[12]": {"system": "T. castaneum mixed-age cultures", "experiment": "Fumigation in 125 litre plastic drums with 100 kg wheat, with/without perforated tubing (Example 6)", "format": "in vivo, Tribolium castaneum", "details": "without perforated tubing, 200 mg/liter, 26 ± 2° C., 125 liter drum; for mortality at 200 µg/mL: Tribolium castaneum, 72 h, read-out: % mortality based on survivors in untreated controls; for Insect Survivors: 72 hours", "description": "In another set of experiments, fumigations were carried out in the plastic drums with 100 kg of wheat under similar conditions mentioned above except that there was no perforated tubing inserted into the grain and the total dose of allyl acetate (27 ml of liquid) was dispensed at one location, that is, on the top layer of the grain. In both sets of experiments, there were 3 replicates for control and fumigated batches.\n(§3) Insect mortality in fumigated batches was determined by taking into consideration of survivors in respective controls as 100%."}, "[13]": {"system": "R. dominica mixed-age cultures", "experiment": "Fumigation in 125 litre plastic drums with 100 kg wheat, with/without perforated tubing (Example 6)", "format": "in vivo, Rhyzopertha dominica", "details": "for Insect Survivors / mortality at 200 µg/mL: R. dominica, 200 mg/liter, 72 hours, 26 ± 2° C., 125 liter drum, 100 kg wheat; for mortality at 200 µg/mL: 72 h, read-out: % mortality based on survivors in untreated controls", "description": "In another set of experiments, fumigations were carried out in the plastic drums with 100 kg […] acetate (27 ml of liquid) was dispensed at one location, that is, on the top layer of the grain. In both sets of experiments, there were 3 replicates for control and fumigated batches.\nas §3"}, "[14]": {"details": "Sitophilus oryzae, read-out: Mortality (%) (Mean ± SD)"}, "[15]": {"details": "Tribolium castaneum, read-out: Mortality (%) (Mean ± SD)"}, "[16]": {"details": "Rhyzopertha dominica, read-out: Mortality (%) (Mean ± SD)"}, "[17]": {"details": "test insect bag at bottom layer"}, "[18]": {"details": "test insect bag at middle layer"}}, "note": "Read-outs that look alike come from different tables or passages of the source."}
{"compound": "C=CCOC(C)=O", "note": "[allyl acetate]", "values": [{"measurement": "LC 50 rat inhalation", "setting": "[1]", "result": "LC 50 rat inhalation 1000 ppm/1 hr"}, {"measurement": "% mortality based on survivors in controls", "setting": "[2]; 100 mg/liter", "result": "(98.9) %"}, {"measurement": "No. of survivors from 50 g lots of mixed-age cultures following treatment", "setting": "[2]; 100 mg/liter", "result": 11.5}, {"measurement": "% mortality based on survivors in controls", "setting": "[2]; 150 mg/liter", "result": "(99.9) %"}, {"measurement": "No. of survivors from 50 g lots of mixed-age cultures following treatment", "setting": "[2]; 150 mg/liter", "result": 1}, {"measurement": "% mortality based on survivors in controls", "setting": "[2]; 200 mg/liter", "result": "(100) %"}, {"measurement": "No. of survivors from 50 g lots of mixed-age cultures following treatment", "setting": "[2]; 200 mg/liter", "result": 0}, {"measurement": "% mortality based on survivors in controls", "setting": "[2]; 400 mg/liter", "result": "(100) %"}, {"measurement": "No. of survivors from 50 g lots of mixed-age cultures following treatment", "setting": "[2]; 400 mg/liter", "result": 0}, {"measurement": "% mortality based on survivors in controls", "setting": "[2]; 600 mg/liter", "result": "(100) %"}, {"measurement": "No. of survivors from 50 g lots of mixed-age cultures following treatment", "setting": "[2]; 600 mg/liter", "result": 0}, {"measurement": "% mortality based on survivors in controls", "setting": "[2]; 800 mg/liter", "result": "(100) %"}, {"measurement": "No. of survivors from 50 g lots of mixed-age cultures following treatment", "setting": "[2]; 800 mg/liter", "result": 0}, {"measurement": "LD 50 rat oral", "setting": "[3]", "result": "LD 50 rat oral 130 mg/kg"}, {"measurement": "LD 99 (mg/Liter)", "setting": "[4]", "result": "5.44 (4.29; 15.6) mg/Liter"}, {"measurement": "LD 50 (mg/Liter)", "setting": "[5]", "result": "4.08 (3.70; 4.42) mg/Liter"}, {"measurement": "LD 99 (mg/Liter)", "setting": "[5]", "result": "12.81 (10.90; 16.15) mg/Liter"}, {"measurement": "LD 50 (mg/Liter)", "setting": "[6]", "result": "6.14 (5.33; 6.80) mg/Liter"}, {"measurement": "LD 99 (mg/Liter)", "setting": "[6]", "result": "11.42 (9.85; 14.92) mg/Liter"}, {"measurement": "LD 50 (mg/Liter)", "setting": "[7]", "result": "1.69 (1.30; 2.02) mg/Liter"}, {"measurement": "LD 99 (mg/Liter)", "setting": "[7]", "result": "7.56 (5.81; 11.67) mg/Liter"}, {"measurement": "mortality at 10 µg/mL", "setting": "[8]; [14]", "result": "92.3 ± 12.7", "unit": "%"}, {"measurement": "mortality at 20 µg/mL", "setting": "[8]; [14]", "result": 100, "unit": "%"}, {"measurement": "mortality at 30 µg/mL", "setting": "[8]; [14]", "result": 100, "unit": "%"}, {"measurement": "mortality at 50 µg/mL", "setting": "[8]; [14]", "result": 100, "unit": "%"}, {"measurement": "mortality at 100 µg/mL", "setting": "[8]; [14]", "result": 100, "unit": "%"}, {"measurement": "mortality of the adults", "setting": "[8]; in vivo", "result": 100, "unit": "%"}, {"measurement": "mortality at 10 µg/mL", "setting": "[9]; [15]", "result": "96 ± 3.7", "unit": "%"}, {"measurement": "mortality at 20 µg/mL", "setting": "[9]; [15]", "result": 100, "unit": "%"}, {"measurement": "mortality at 30 µg/mL", "setting": "[9]; [15]", "result": 100, "unit": "%"}, {"measurement": "mortality at 50 µg/mL", "setting": "[9]; [15]", "result": 100, "unit": "%"}, {"measurement": "mortality at 100 µg/mL", "setting": "[9]; [15]", "result": 100, "unit": "%"}, {"measurement": "mortality of the adults", "setting": "[9]; in vivo", "result": 100, "unit": "%"}, {"measurement": "mortality at 10 µg/mL", "setting": "[10]; [16]", "result": 100, "unit": "%"}, {"measurement": "mortality at 20 µg/mL", "setting": "[10]; [16]", "result": 100, "unit": "%"}, {"measurement": "mortality at 30 µg/mL", "setting": "[10]; [16]", "result": 100, "unit": "%"}, {"measurement": "mortality at 50 µg/mL", "setting": "[10]; [16]", "result": 100, "unit": "%"}, {"measurement": "mortality at 100 µg/mL", "setting": "[10]; [16]", "result": 100, "unit": "%"}, {"measurement": "mortality of the adults", "setting": "[10]; in vivo", "result": 100, "unit": "%"}, {"measurement": "Insect Survivors", "setting": "[11]; [17]", "result": 0}, {"measurement": "Insect Survivors", "setting": "[11]; [18]", "result": 0}, {"measurement": "Insect Survivors", "setting": "[11]; test insect bag at top layer", "result": 0}, {"measurement": "mortality at 200 µg/mL", "setting": "[11]; Tribolium castaneum, bottom layer", "result": 100, "unit": "%"}, {"measurement": "mortality at 200 µg/mL", "setting": "[11]; Tribolium castaneum, middle layer", "result": 100, "unit": "%"}, {"measurement": "mortality at 200 µg/mL", "setting": "[11]; Tribolium castaneum, top layer", "result": 100, "unit": "%"}, {"measurement": "dosage for 100% kill of all stages", "setting": "[11]; Tribolium castaneum, all stages, preferred exposure period 72 hours", "result": "200 mg per litre of space"}, {"measurement": "mortality at 200 µg/mL", "setting": "[12]; bottom layer", "result": 0, "unit": "%"}, {"measurement": "mortality at 200 µg/mL", "setting": "[12]; middle layer", "result": 100, "unit": "%"}, {"measurement": "mortality at 200 µg/mL", "setting": "[12]; top layer", "result": 99.4, "unit": "%"}, {"measurement": "Insect Survivors", "setting": "[12]; [17]", "result": 39.00}, {"measurement": "Insect Survivors", "setting": "[12]; [18]", "result": 0}, {"measurement": "Insect Survivors", "setting": "[12]; test insect bag at top layer", "result": 0.33}, {"measurement": "Insect Survivors", "setting": "[13]; with perforated tubing, test insect bag at bottom layer", "result": 0}, {"measurement": "Insect Survivors", "setting": "[13]; with perforated tubing, test insect bag at middle layer", "result": 0}, {"measurement": "Insect Survivors", "setting": "[13]; with perforated tubing, test insect bag at top layer", "result": 0}, {"measurement": "Insect Survivors", "setting": "[13]; without perforated tubing, test insect bag at bottom layer", "result": 0.67}, {"measurement": "Insect Survivors", "setting": "[13]; without perforated tubing, test insect bag at middle layer", "result": 0}, {"measurement": "Insect Survivors", "setting": "[13]; without perforated tubing, test insect bag at top layer", "result": 0}, {"measurement": "mortality at 200 µg/mL", "setting": "[13]; Rhyzopertha dominica, with perforated tubing, bottom layer", "result": 100, "unit": "%"}, {"measurement": "mortality at 200 µg/mL", "setting": "[13]; Rhyzopertha dominica, with perforated tubing, middle layer", "result": 100, "unit": "%"}, {"measurement": "mortality at 200 µg/mL", "setting": "[13]; Rhyzopertha dominica, with perforated tubing, top layer", "result": 100, "unit": "%"}, {"measurement": "mortality at 200 µg/mL", "setting": "[13]; Rhyzopertha dominica, without perforated tubing, bottom layer", "result": 99.6, "unit": "%"}, {"measurement": "mortality at 200 µg/mL", "setting": "[13]; Rhyzopertha dominica, without perforated tubing, middle layer", "result": 100, "unit": "%"}, {"measurement": "mortality at 200 µg/mL", "setting": "[13]; Rhyzopertha dominica, without perforated tubing, top layer", "result": 100, "unit": "%"}, {"measurement": "dosage for 100% kill of all stages", "setting": "[13]; Rhyzopertha dominica, all stages, preferred exposure period 72 hours", "result": "200 mg per litre of space"}]}
